Measured values as given in patent US6660320B1, “Process for producing an antioxidant extract from the bearberry plant” (University of Saskatchewan Technologies Inc., priority 1999, dated 2003).

What was measured:
[1] = β-carotene-linoleate model system; conditions: 0.5 mg of BHA per 5 mL emulsion, 50° C., FIG. 1
Method: The antioxidant activity of the bearberry extract was evaluated using a β-carotene-linoleate model system (Miller, 1971). Briefly, 2-mg quantities of β-carotene were dissolved in 10 mL of chloroform. One millilitre of this solution was then pipetted into a small round-bottom flask. After removing the chloroform using a rotary evaporator, 20 mg of purified linoleic acid, 200 mg of Tween 40 emulsifier and 50 mL of aerated, distilled water were added to the flask with vigorous stirring. Aliquots (5 mL) of prepared emulsion were transferred to a series of tubes containing 2 mg of extract or 0.5 mg of BHA. As soon as the emulsion was added to each tube, the zero time absorbance was read at 470 nm (nanometers) against a reagent blank using a spectrophotometer. Subsequent absorbance readings were recorded at 15-minute intervals by keeping the samples in water bath at 50° C. until the color of β-carotene disappeared.

[2] = meat model system, TBARS of cooked comminuted pork
Method: The efficacy of the bearberry extract was tested in a meat model system. Pork cushions were obtained from Mitchell's Gourmet Foods, Ltd. (Saskatoon, SK). The meat was ground two times through a ⅛-inch plate using a Biro grinder/food mixer (AMFG Model 24, Marblehead, Ohio). Pork from the meat block was transferred to Mason jars and mixed with 20% (w/w) distilled water and various additives. Meat systems were thermal processed in an 85° C. thermostated water bath with occasional stirring by a glass rod until an internal temperature of 75±1° C. was reached. The meat systems were cooled to room temperature, homogenized in an Osterizer (Sunbeam Corporation [Canada] Ltd., Toronto, ON) blender for 30 seconds, transferred to Whirl Pak bags (Systems Plus, New Hamburg, ON) and refrigerated at 4° C. until used.
(§1) Thiobarbituric reactive substances (TBARS) were determined for the bearberry extract (Witte et al.,1970, and Bedinghaus and Ockerman, 1995). Briefly, a 5-g portion of each sample was transferred to a stomacher bag in which 50 mL of a 20% (w/v) TCA and 1.6% (v/v) phosphoric acid solution were added. Each sample was stomached (Stomacher Lab-Blender 400, Model BA6021, A. J. Seward, Co., Bury St. Edmunds, UK) for 2 minutes and then 50 mL of cold distilled water were added. After blending for an additional minute, each sample was filtered through Whatman #1 filter paper into a 100-mL volumetric flask. Each flask was filled to mark with distilled water/TCA solution (1:1 v/v) and its contents were mixed well. Five-mL aliquots from each sample were pipetted to polypropylene conical centrifuge tubes (VWR Canlab, Mississauga, ON) to which an equivalent volume of a 0.02 M aqueous TBA reagent was added. Tubes were capped and heated in a boiling water bath for 35 minutes, and then cooled in an ice bath. Absorbance measurements of the pink-colored chromogen were made at 532 nm against a reagent blank using a spectrophotometer. A ‘k’ factor of 20.1 was determined from a calibration curve based on addition of known quantities of the malonaldehyde precursor, 1,1,3,3-tetramethoxypropane, to cooked meat samples prior to extraction and an average recovery of 85.5% was found.

[3] = TBA analysis of cooked pork patties; conditions: 50 ppm TBHQ; 200 ppm bearberry extract; both formulations, stored at 4° C.
Method: as §1, with “Tubes were capped and heated in a boiling water bath for 35 minutes, and then cooled in an ice bath.” left out, “found. […]” for “found.”
TBA reactive substances were determined in cooked pork patties over the course of the study as has been previously described.

Row | SMILES | inhibition of β-carotene consumption throughout the incubation [1] | TBARS Values ([2]; Table 3, 50 ppm, 1 day of storage at 4° C.) | TBARS Values ([2]; Table 3, 50 ppm, 3 days of storage at 4° C.) | TBARS Values ([2]; Table 3, 50 ppm, 5 days of storage at 4° C.) | TBARS Values ([2]; Table 3, 50 ppm, 7 days of storage at 4° C.) | TBARS Values ([2]; Table 3, 50 ppm, 14 days of storage at 4° C.) | TBARS Values ([2]; Table 4, 50 ppm, 1 day of storage at 4° C.) | TBARS Values ([2]; Table 4, 50 ppm, 3 days of storage at 4° C.) | TBARS Values ([2]; Table 4, 50 ppm, 5 days of storage at 4° C.) | TBARS Values ([2]; Table 4, 50 ppm, 7 days of storage at 4° C.) | TBARS Values ([2]; Table 4, 50 ppm, 14 days of storage at 4° C.) | TBA results, lipid oxidation during storage [3]
1 | COc1ccc(O)c(C(C)(C)C)c1 [BHA, butylated hydroxyanisole] | completely inhibited β-carotene consumption |  |  |  |  |  |  |  |  |  |  | 
2 | CC(C)(C)c1cc(O)ccc1O [TBHQ, tert-butylhydroquinone] |  | 0.10 mg malonaldehyde eq./kg sample | 0.10 mg malonaldehyde eq./kg sample | 0.10 mg malonaldehyde eq./kg sample | 0.20 mg malonaldehyde eq./kg sample | 0.34 mg malonaldehyde eq./kg sample | 0.10 mg malonaldehyde eq./kg sample | 0.10 mg malonaldehyde eq./kg sample | 0.10 mg malonaldehyde eq./kg sample | 0.23 mg malonaldehyde eq./kg sample | 0.45 mg malonaldehyde eq./kg sample | retarded lipid oxidation during storage
